Experimental data published in paper PMC3556473, “Absorption, metabolism and excretion of [^14C]pomalidomide in humans following oral administration” (Cancer Chemotherapy and Pharmacology, 2012).
Where “and” joins values, the source holds several entries; their conditions need not be identical. Equal values may be shown once. Read-outs that look alike come from different tables or passages of the source.

Assays:
[1] = Excretion of radioactivity in urine and feces (mass balance); type: in vivo, human
Protocol: (§1) Each subject was administered a single oral suspension of 2 mg (100 μCi) of [^14C]pomalidomide in seltzer water (75 mL) followed by administration of an additional 140 mL of distilled water. Subjects were fasted for 8 h prior to and 4 h following dose administration. The residual radioactivity in the dosing vials was determined, and for six of the eight subjects (subjects 1–4, 6 and 8), the administered dose (1.93–2.02 mg) was close to the target dose of 2 mg. For subjects 5 and 7, a significant amount of radioactivity remained in the dose vial, resulting in administered doses of 1.59 and 1.51 mg, respectively. Calculations for percent of dose recovered in excreta were based on the actual administered doses.
(§2) Blood was collected into pre-chilled K3EDTA tubes at pre-dose, 0.5, 1, 1.5, 2, 2.5, 3, 4, 6, 8, 10, 12, 24, 48, 72, 120 and 168 h following dose administration. Blood for radioactivity counting was transferred to a clean tube and stored at or below 4 °C until analyzed. Plasma was harvested by centrifugation from the remaining blood. A plasma sample for radioactivity counting was transferred to a fresh tube. Three plasma aliquots were transferred to tubes containing citric acid for metabolite profiling and for determination of pomalidomide enantiomer concentrations in plasma. Urine was collected pre-dose, 0–6, 6-12, 12–24 and every 24 h thereafter up to 216 h (9 days) following dose administration and were stabilized with one volume of pH 1.5 Sorensen’s citrate buffer (25 mM sodium citrate buffer adjusted to pH 1.5). During the 12- to 24-h collection interval for subject 4, approximately 550 mL of urine was inadvertently poured into the wrong collection urinal and the sample was lost. […] Individual fecal samples were collected pre-dose and for up to 9 days following dose administration, and homogenized using approximately three volumes by weight of pH 1.5 Sorensen’s citrate buffer. All urine, fecal homogenates and plasma samples were stored at or below −20 °C until analyzed.
(§3) All radioactivity determinations were performed using Tri-Carb model 2900TR liquid scintillation counter (PerkinElmer, Wellesley, MA). For plasma, urine and residual dose vial analysis, duplicate samples were mixed with Ultima Gold XR scintillation cocktail and directly analyzed by liquid scintillation counting. For fecal homogenate and blood samples, duplicate aliquots were weighed, allowed to dry and combusted using a PerkinElmer model 307 sample oxidizer. The resultant [^14C]CO2 was trapped in Carbosorb (PerkinElmer) in combination with Permafluor and assayed by liquid scintillation counting. For all matrices, any sample that was less than two times the background dpm was assigned a value of zero. Using these criteria, the lower limits of quantification in plasma, blood, urine and feces were 0.894 ng [^14C]pomalidomide equivalent/mL (ngEq/mL), 0.939 ngEq/g, 0.871 ngEq/mL and 2.96 ngEq/g, respectively.
The amount of total radioactivity (ngEq) in urine and feces was determined by multiplying the volume or weight of the samples by the radioactivity concentration. The dose recovered at each time point was determined by total radioactivity in the sample, divided by the total dose administered, multiplied by 100 %. For data BLQ values, a value of zero was assigned for calculations of means.

[2] = Pharmacokinetics of total radioactivity in whole blood and plasma after a single oral 2 mg dose of [14C]pomalidomide; type: in vivo, human
Protocol: as §1, §2, §3
Standard pharmacokinetic parameters were estimated from the pomalidomide (as the sum of the enantiomer concentrations at each time point) and enantiomer concentration versus time profiles or the blood and plasma radioactive concentration equivalents versus time profiles using established non-compartmental methods with WinNonlin (Version 5.2, Pharsight Corp., CA). Pre-dose samples that were below the limit of quantification (BLQ) or missing were assigned a numerical value of zero for the calculation of AUC. All post-dose BLQ were treated as missing in the PK analysis.
Total radioactivity in whole blood and plasma was converted to nanogram equivalent (ngEq) concentrations (ngEq/g for whole blood or ngEq/mL for plasma) based on the actual specific activity of the dose.

[3] = parameters: method as in earlier work; details: ref 2 and unpublished data, cited from earlier work
[4] = Plasma pharmacokinetics of pomalidomide and its enantiomers (chiral LC–MS/MS) after a single oral 2 mg dose of [14C]pomalidomide; type: in vivo, human
From the text: This was an open-label, in-patient, single-dose study in eight non-smoking healthy male adult volunteers conducted in accordance with Good Clinical Practices (GCP) and in compliance with the Declaration of Helsinki. The protocol and consent form were reviewed and approved by the appropriate institutional review board, and all study participants gave written informed consent, before initiation of any study-related procedure. Male subjects were eligible based on standard inclusion/exclusion criteria and were excluded if they had exposure to excess radiation or participated in a study involving radioisotopes within the previous 12 months. Subjects entered the study center on the day prior to dosing and remained at the center for up to 15 days following dosing or until the total radioactivity recovered in excreta was ≥90 % or the radioactivity recovered in excreta per day on three consecutive days was ≤1 % of the administered radioactive dose.
as §1, §2
Plasma concentrations of each pomalidomide enantiomer were determined using a chiral LC–MS/MS assay. The pomalidomide enantiomers and ^13C-labeled pomalidomide (internal standard; IS) were extracted from plasma (stabilized with citric acid) using liquid–liquid extraction with methyl tertiary butyl ether. After transfer to a new tube, the solvent was evaporated, and the samples were reconstituted and injected for LC–MS/MS analysis using a Chiral AGP (50 × 3.0 mm, 5 μm; Chrom Tech, Inc., Apple Valley, MN) analytical column. Positive ions were measured in the multiple reaction monitoring (MRM) mode using a Sciex API-4000 tandem mass spectrometer equipped with a Turbo Ion Spray source. For the QC samples, the accuracy ranged from 91.0 to 106.9 %. For study samples, the amount of [^14C]-labeled material was accounted for when calculating the concentration of enantiomers in plasma using an appropriate correction factor. […]

[5] = percentage of dose, over 216 h, listed as [^14C]pomalidomide
[6] = plasma, as [14C]pomalidomide equivalents, mean ± SD
[7] = whole blood, as [14C]pomalidomide equivalents, mean ± SD

mean total recovery of radioactivity (urine + feces) ([1]; % of radioactive dose, collection over 216 h (9 days), eight subjects, listed as [^14C]pomalidomide): 88% and 88.3%
oral absorption ([1]; inferred from urinary radioactivity and unchanged drug in feces): > 70%
radioactivity excreted in feces, mean [1, 5]: 15% and 15.5 ± 2.5%
radioactivity excreted in urine, mean [1, 5]: 73% and 72.8 ± 16.7%
radioactivity recovered within the first 48 h after dose administration ([1]; urine + feces): > 80%
AUC0−t, plasma total radioactivity [2, 6]: 189 ± 88 ng·h/mL
AUC0−∞, plasma total radioactivity [2, 6]: 225 ± 94 ng·h/mL
AUC0–24, TRA (total radioactivity) ([2]; plasma, geometric mean (%CV)): 194 (27.6) ngEq*h/mL
AUC0−∞, TRA (total radioactivity) ([2]; plasma, geometric mean (%CV)): 245 (37.9) ngEq*h/mL
C max, TRA (total radioactivity) ([2]; plasma, geometric mean (%CV)): 14.8 (17.8) ngEq/mL
t ½, TRA (total radioactivity) ([2]; plasma, geometric mean (%CV)): 10.3 (23.5) h
t ½, plasma total radioactivity ([2]; plasma, mean ± SD, listed as [^14C]pomalidomide): 11.2 ± 2.5 h
T max, plasma total radioactivity ([2]; plasma, median (min–max), listed as [^14C]pomalidomide): 3.25 (1.0–4.0) h
T max, TRA (total radioactivity) ([2]; plasma, median and range): 2.5 (1.0–4.0) h
Radioactivity blood to plasma ratio, AUC0−t ([2]; single oral 2 mg): 0.84
Radioactivity blood to plasma ratio, AUC0−∞ ([2]; single oral 2 mg): 0.87
Radioactivity blood to plasma ratio, C max ([2]; single oral 2 mg): 0.80
AUC0−t, whole blood total radioactivity [2, 7]: 225 ± 99 ng·h/mL
AUC0−∞, whole blood total radioactivity [2, 7]: 260 ± 102 ng·h/mL
t ½, whole blood total radioactivity ([2]; whole blood, mean ± SD): 10.2 ± 1.9 h
T max, whole blood total radioactivity ([2]; whole blood, median (min–max)): 2.5 (1.0–4.0) h
Cmax ([4]; human, healthy male subjects, mean ± SD (n = 8)): 13 ± 3.9 ng/mL
AUC(0-inf) ([4]; male, human, mean ± SD (n = 8)): 189 ± 52 ng·h/mL
AUC(0-t) ([4]; male, human, mean ± SD (n = 8)): 137 ± 67 ng·h/mL
half-life ([4]; male, human, po, 2 mg, mean ± SD (n = 8), read-out: t ½ (converted)): 11.2 h
Tmax ([4]; male, human, po, 2 mg, median (min–max)): < 3.5 h
t ½ ([4]; mean ± SD (n = 8)): 8.9 ± 3.4 h
T max ([4]; median (min–max)): 3.0 (2.0–6.0) h
SMILES: Nc1cccc2c1C(=O)N(C1CCC(=O)NC1=O)C2=O (racemic) [Pomalidomide, (RS)-4-amino-2-(2,6-dioxo-piperidin-3-yl)-isoindoline-1,3-dione]
C max, plasma total radioactivity ([2]; plasma, single oral 2 mg, mean ± SD): 12.1 ± 2.2 ng [^14C]pomalidomide equivalent/mL
C max, whole blood total radioactivity ([2]; whole blood, single oral 2 mg, mean ± SD): 15.1 ± 2.7 ng [^14C]pomalidomide equivalent/mL
mean C max and AUC accumulation ratios ([3]; once-daily administrations, MM patients): < 2
half-life ([3]; relapsed or refractory MM patients): 6.5 to 8.0 h
